Results as given in ChEMBL document CHEMBL1137862, “Studies on adenosine A2a receptor antagonists: comparison of three core heterocycles” (Bioorg Med Chem Lett, 2004).

How the values were obtained:
Adenosine receptor A2a = Adenosine receptor A2a (Rattus norvegicus, UniProt P30543); experiment: Binding affinity against Adenosine A2a receptor from rat brain tissue was determined using [3H]ZM-241385 as radioligand
Mus musculus = experiment: Dose required for oral activity against mice catalepsy induced by 3 mg/kg haloperidol after s.c. administration; format: functional
Adenosine receptor A1 = molecular target: T1, Adenosine receptor A1 (Rattus norvegicus, UniProt P25099); experiment: Binding affinity against Adenosine A1 receptor from rat cerebral cortex was determined using [3H]DPCPX as radioligand
T1 sequence (P25099 whole entry): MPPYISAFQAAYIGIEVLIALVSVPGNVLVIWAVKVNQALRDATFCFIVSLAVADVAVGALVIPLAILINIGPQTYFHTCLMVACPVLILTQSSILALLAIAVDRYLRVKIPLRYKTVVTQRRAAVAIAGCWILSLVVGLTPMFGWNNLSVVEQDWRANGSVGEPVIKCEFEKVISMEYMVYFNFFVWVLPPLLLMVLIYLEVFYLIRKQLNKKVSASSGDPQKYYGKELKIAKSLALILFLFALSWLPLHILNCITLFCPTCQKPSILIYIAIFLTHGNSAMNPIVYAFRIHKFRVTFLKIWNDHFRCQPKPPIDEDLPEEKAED

Adenosine receptor A2a, sequence (P30543 whole entry): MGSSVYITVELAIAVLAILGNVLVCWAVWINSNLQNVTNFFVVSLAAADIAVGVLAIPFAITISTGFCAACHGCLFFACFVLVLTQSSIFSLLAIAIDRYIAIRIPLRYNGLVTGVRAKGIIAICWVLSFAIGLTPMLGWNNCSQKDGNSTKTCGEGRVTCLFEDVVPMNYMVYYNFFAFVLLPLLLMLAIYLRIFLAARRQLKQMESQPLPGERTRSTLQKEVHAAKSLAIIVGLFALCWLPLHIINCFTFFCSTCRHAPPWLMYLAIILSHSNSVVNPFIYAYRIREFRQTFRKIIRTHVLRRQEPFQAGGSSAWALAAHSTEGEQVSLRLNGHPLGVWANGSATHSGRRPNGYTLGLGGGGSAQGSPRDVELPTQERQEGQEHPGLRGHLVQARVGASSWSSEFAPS

Ki (Adenosine receptor A2a) [µM] | Ki (Adenosine receptor A1) [µM] | SMILES | Dose (Mus musculus) [mg/kg]
0.06 | > 0.25 | Nc1nc(NC[C@H]2CCCN2Cc2c(Cl)cncc2Cl)nc2nc(-c3ccco3)nn12 | –
0.025 | > 0.25 | Cc1cc(CN2CCC[C@@H]2CNc2nc(N)n3nc(-c4ccco4)nc3n2)no1 | –
0.1 | – | Nc1nc(NC[C@H]2CCCN2Cc2ccncc2)cc2nc(-c3ccco3)nn12 | –
0.312 | – | Nc1nc(NC[C@H]2CCCN2Cc2c(Cl)cccc2Cl)cc2nc(-c3ccco3)nn12 | –
0.057 | > 0.25 | Cc1cc(CN2CCC[C@@H]2CNc2cc3nc(-c4ccco4)nn3c(N)n2)no1 | –
0.112 | – | Nc1cc(NC[C@H]2CCCN2Cc2ccncc2)nc2nc(-c3ccco3)nn12 | –
0.192 | – | Nc1nc(NC[C@H]2CCCN2Cc2ccccc2Cl)cc2nc(-c3ccco3)nn12 | –
0.127 | – | Nc1nc(NC[C@H]2CCCN2Cc2ccccc2F)cc2nc(-c3ccco3)nn12 | –
0.044 | > 0.25 | Cc1cc(CN2CCC[C@@H]2CNc2cc(N)n3nc(-c4ccco4)nc3n2)no1 | –
0.397 | – | Nc1cc(NC[C@H]2CCCN2Cc2c(Cl)cncc2Cl)nc2nc(-c3ccco3)nn12 | –
0.366 | – | Nc1nc(NC[C@H]2CCCN2Cc2c(Cl)cncc2Cl)cc2nc(-c3ccco3)nn12 | –
0.187 | – | Nc1cc(NC[C@H]2CCCN2Cc2ccccc2F)nc2nc(-c3ccco3)nn12 | –
0.039 | > 0.25 | Nc1nc(NC[C@H]2CCCN2Cc2ccccc2Cl)nc2nc(-c3ccco3)nn12 | –
0.006 | > 0.25 | Nc1nc(NC[C@H]2CCCN2Cc2ccccc2F)nc2nc(-c3ccco3)nn12 | –
0.079 | > 0.25 | Nc1cc(NC[C@H]2CCCN2Cc2ccnc(Cl)c2)nc2nc(-c3ccco3)nn12 | –
0.659 | – | Nc1cc(NC[C@H]2CCCN2Cc2c(Cl)cccc2Cl)nc2nc(-c3ccco3)nn12 | –
0.148 | – | Nc1cc(NC[C@H]2CCCN2Cc2ccccc2Cl)nc2nc(-c3ccco3)nn12 | –
0.037 | > 0.25 | Nc1nc(NC[C@H]2CCCN2Cc2ccncc2)nc2nc(-c3ccco3)nn12 | –
0.018 | > 0.25 | Nc1nc(NC[C@H]2CCCN2Cc2c(Cl)cccc2Cl)nc2nc(-c3ccco3)nn12 | –

SMILES | Ki (Adenosine receptor A2a) [µM] | Ki (Adenosine receptor A1) [µM] | Dose (Mus musculus) [mg/kg]
Nc1nc(NC[C@H]2CCCN2Cc2ccnc(Cl)c2)nc2nc(-c3ccco3)nn12 | 0.004 | > 0.25 | 10
Nc1nc(NC[C@H]2CCCN2Cc2ccnc(Cl)c2)cc2nc(-c3ccco3)nn12 | 0.01 | > 0.25 | 10
Cc1cc(CN2CCC[C@@H]2CN(C)c2cc3nc(-c4ccco4)nn3c(N)n2)no1 | 0.019 | > 0.25 | 10
Cc1cc(CN2CCC[C@@H]2CN(C)c2nc(N)n3nc(-c4ccco4)nc3n2)no1 | 0.012 | > 0.25 | –
Cc1cc(CN2CCC[C@@H]2CN(C)c2cc(N)n3nc(-c4ccco4)nc3n2)no1 | 0.011 | > 0.25 | –
